Source: PubChem BioAssay AID179 (DTP/NCI, 2004)
Values joined by “and” are separate entries in the source; they are usually repeats but may differ in a detail not shown here. Equal values may be shown once. Active and inactive are the calls of the source.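 The calls were made as follows: active = compounds giving half or more protection of infected cells from virus-caused growth loss, again on retest; inactive = the rest.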 Where a SMILES comes first, the peptide text is derived from it. The star is where a group is joined. Boc = CC(C)(C)OC(=O)*

Test system: CEM cells HIV-1 protection, formazan growth assay
Experiment: NCI AIDS Antiviral Assay
Settings: for IC50: measured here: growth of uninfected CEM cells
In short: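 Protection of CEM cells against HIV-1 was scored from cell growth (soluble formazan) across five concentrations, with parallel uninfected cells. Lack of protection may reflect toxicity.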

| SMILES | EC50 [µM] | IC50 | outcome |
| --- | --- | --- | --- |
| O=C(NNC(=S)NC1CCCCC1)C12CC3CC(CC(C3)C1)C2 | > 200 | > 200 µM | – |
| CCOC(=O)CCCSCCCC1(CCCSCCCC(=O)OCC)OCCO1 | > 39.8 | > 39.8 µM | – |
| Brc1ccc(N=NN2CCCC2)cc1 | > 200 | 38.9 µM | – |
| CSC(=S)Nc1cccc(C)n1 | > 200 | 102 µM | – |
| CCOC(=O)/C(C#N)=C(O)/C(=C\c1ccc(Br)cc1)NC(=O)c1ccccc1 | > 562 | > 562 µM | – |
| O=C(c1cc(=O)c2ccc(O)cc2o1)c1ccc(Cl)cc1Cl | > 204 | 18.6 µM | – |
| CCC[CH2][Sn]1([CH2]CCC)[O]CC(CN2CCCCC2)[O]1 (stereo not drawn) | > 9.33 | 0.0646 µM | – |
| CC1(C)C2CCC1(C)[C@H](O)[C@H]2Nc1cc(C(F)(F)F)cc(C(F)(F)F)c1 (stereo partly drawn) | > 20 | 0.513 µM | – |
| CC1C2CC(C/C2=N/O)C1(C)C (stereo not drawn) | > 1480 | 437 µM | – |
| CCOC(=O)c1cccn1S(=O)(=O)c1cc(Cl)ccc1NC(=O)CC | 6.17 | 195 µM | – |
| COc1cccc2c1OC(c1ccc(Cl)cc1)C([N+](=O)[O-])=C2 (stereo not drawn) | > 200 | 1.45 µM | – |
| CCCCCCCCCCCCCCCCOC1OC(COC(C)=O)C(OC(C)=O)C(OC(C)=O)C1O (stereo not drawn) | > 13.5 | > 13.5 µM | – |
| COCc1c(C(=O)NCCO)[n+](=O)c2ccccc2n1[O-] | > 87.1 | > 87.1 µM | – |
| COCC(C#N)NC1CC(OC2CC(O)(C(=O)CO)Cc3c(O)c4c(c(O)c32)C(=O)c2c(OC)cccc2C4=O)OC(C)C1O (stereo not drawn) | > 0.2 | 0.00912 µM | – |
| O=C(CC(=O)Nc1ccc(C(=O)O)cc1)Nc1ccc(C(=O)O)cc1 | > 200 | > 200 µM | – |
| COc1ccccc1N1CCN(CCc2c[nH]c3cc4c(cc23)OCO4)CC1 | > 132 | 7.41 µM | – |
| CCCCCC(/C=N/N)C(O)(C(F)(F)F)C(F)(F)F (stereo not drawn) | > 200 | 1.48 µM | – |
| CC(=O)OCC1OC(n2c(=S)[nH]c(-c3ccccc3)c(C#N)c2=O)C(OC(C)=O)C(OC(C)=O)C1OC(C)=O (stereo not drawn) | > 200 | 170 µM | – |
| CCOC(=O)c1nc2cc(Cl)ccc2[nH]c1=O | > 200 | 105 µM | – |
| O=[N+]([O-])c1cccc(-c2cn3c(n2)Cc2ccccc2C3)c1 | > 200 | 33.9 µM | – |
| OCCNCCNc1c2ccccc2nc2cc(Cl)ccc12 | – | – | inactive |

| SMILES | EC50 [µM] | IC50 | outcome |
| --- | --- | --- | --- |
| C/C(=N\NC(=S)N1CCCCCC1)c1ccccn1 | > 49 | 0.0372 µM | – |
| CCCCCCCCCCCCOCCCCCCCCC/C=C/c1ccc2c(c1)OCCOCCOCCOCCO2 | > 200 | 15.1 µM | – |
| CCOP(=O)(OCC)/C(C#N)=C/c1ccc2ccccc2c1 | > 22.9 | > 22.9 µM | – |
| CC1NC(/C(=C/c2ccccc2O)NC(=O)c2ccccc2)OC1=O (stereo not drawn) | > 50.1 | > 50.1 µM | – |
| COc1cccc(N2C(=O)C3CC(CC(C)(C)C)c4c([nH]c5ccccc45)C3C2=O)c1 (stereo not drawn) | > 200 | 42.7 µM | – |
| COC(=O)C(Cc1c[nH]c2ccccc12)NC(=O)C(Cc1c[nH]c2ccccc12)NC(=O)C(Cc1c[nH]c2ccccc12)NC(=O)OC(C)(C)C (stereo not drawn) (Boc-Trp-Trp-Trp-OMe; configuration not given here) | > 200 | 29.5 µM | – |
| N#CCCN1C(=O)CCC2(CCC(=O)N(CCC#N)C2=O)C1=O | > 794 | > 794 µM | – |
| CC(=O)OCC1OC(OCC2OC(N3C(=S)N[C@H]([C@@H](O)[C@H](O)[C@H](O)CO)[C@H]3O)C(OC(C)=O)C(OC(C)=O)C2OC(C)=O)C(OC(C)=O)C(OC(C)=O)C1OC(C)=O (stereo partly drawn) | > 100 | > 100 µM | – |
| Cc1cc2c(c(=O)n1C)SCC2 | > 200 | > 200 µM | – |
| COc1ccc(/C=C2/Cc3cccc4c([N+](=O)[O-])ccc2c34)cc1 | > 100 | > 100 µM | – |
| Cc1cccc(N=C2NC(=O)C(CC(=O)Nc3cccc(C)c3C)S2)c1 (stereo not drawn) | > 70.8 | > 70.8 µM | – |
| Cc1ccccc1N1CC2CC3C=CC2(C1)O3 (stereo not drawn) | > 200 | > 200 µM | – |
| CC(=O)Nc1c(I)c(C(=O)O)c(I)c(N(C)C(C)=O)c1I | > 200 | > 200 µM | – |
| CC1CCCN(CCSSCCN2CCCC(C)C2)C1 (stereo not drawn) | > 200 | 70.8 µM | – |
| CC(=O)Nc1cc2cc(N)ccc2oc1=O | > 107 | > 107 µM | – |
| Cc1c(-c2ccccc2)c(=O)oc2c3c(ccc12)OC(C)(C)[C@H](OC(=O)C12CCC(C)(C(=O)O1)C2(C)C)[C@@H]3OC(=O)C12CCC(C)(C(=O)O1)C2(C)C (stereo partly drawn) | > 100 | > 100 µM | – |
| COCn1cnc2c(=O)n(-c3ccc(C)cc3)c(=S)n(-c3ccc(C)cc3)c21 | > 200 | 138 µM | – |
| CC(C)c1c(O[Si](C(C)C)(C(C)C)C(C)C)cc2c(c1O)CC[C@H]1C(C)(C)CCC[C@]21C | > 200 | 26.9 µM | – |
| O=[N+]([O-])c1ccccc1NC1CCN(CCCC2(c3ccc(F)cc3)OCCO2)CC1 | > 200 | 12.9 µM | – |
| Cc1c2cc(O)c(=O)cc-2oc2cc(O)c(O)cc12 | > 200 | 12.6 µM and 39.8 µM | – |
| O=C(O)C12C3C4(C(=O)O)C1C1(C(=O)O)C2C3(C(=O)O)C41 (stereo not drawn) | > 200 | > 200 µM | – |

| SMILES | EC50 [µM] | IC50 | outcome |
| --- | --- | --- | --- |
| Cc1ccc(SSCCCS(=O)O)cc1 | – | – | inactive |
| O=C(C[C@H](Cl)[C@H](NC(=O)OCc1ccccc1)C(=O)O)NO | – | – | inactive |
| C=C(CN(C)C)C(=O)c1ccc(Oc2ccccc2)cc1 | > 200 | 3.47 µM | – |
| O=C(Nc1nc(=S)[nH][nH]1)C(=O)C1C(=O)Nc2ccccc2S1=O (stereo not drawn) | > 372 | > 372 µM | – |
| O=C(NC1C2CC3CC(C2)CC1C3)c1cc(/C=C/c2ccccc2)[nH]c(=S)n1 (stereo not drawn) | > 34.7 | > 34.7 µM | – |
| C/C(=N\Nc1ccccc1)c1sc(-c2nc(C)c(/C(C)=N/Nc3ccccc3)s2)nc1C | > 15.5 | > 15.5 µM | – |
| N#Cc1nc(-c2ccco2)oc1N | > 200 | > 200 µM | – |
| COc1cc2c3c([nH]c2c(OC)c1OC)CCN(Cc1ccccc1)C3 | > 200 | 66.1 µM | – |
| CCOC(=O)/C(=C/c1ccco1)C(=O)c1ccccc1 | > 132 | 77.6 µM | – |
| Nc1ccc(N=Nc2ccc(-c3ccc(N=Nc4ccc(N)c5cc(S(=O)(=O)O)ccc45)cc3)cc2)c2ccc(S(=O)(=O)O)cc12 | – | – | active |
| O=C(NNC(=O)c1ccccc1O)c1ccco1 | > 200 | 32.4 µM | – |
| Cc1cn(C2CC(NC(=O)N(C)O)C(CO)O2)c(=O)[nH]c1=O (stereo not drawn) | > 200 | > 200 µM | – |
| Cc1c[nH]c(C(=O)O)c1-c1cccn1-c1ccc(Cl)cc1[N+](=O)[O-] | > 200 | 87.1 µM | – |
| CS(=O)(=O)c1ccc(/C=C2/C=Cc3ccccc32)cc1 | > 25.7 | > 25.7 µM | – |
| Cc1cc(-c2no[n+]([O-])c2-c2cc(C)sc2S(C)(=O)=O)c(S(C)(=O)=O)s1 | > 200 | > 200 µM | – |
| O=C1CC(CC(O)C2CCCC2O)CC(=O)N1 (stereo not drawn) | > 200 | > 200 µM | – |
| COC1/C=C/OC2(C)Oc3c(C)c(O)c4c(O)c(c(/C=N/OCCN5CCCCC5)c(O)c4c3C2=O)NC(=O)C(C)=C/C=C/C(C)C(O)C(C)C(O)C(C)C(OC(C)=O)C1C (stereo not drawn) | > 100 | 28.2 µM | – |
| O=C1CCn2c([nH]c3cccc4cccc2c43)=N1 | > 151 | 148 µM | – |
| Cc1ccccc1N(C)S(=O)(=O)c1ccccc1[N+](=O)[O-] | > 200 | 38.9 µM | – |
| Cc1c(NC(=O)C(C)(C)Br)c(=O)oc2c(C)c3occc(=O)c3cc12 | > 16.6 | > 16.6 µM | – |
| CC(=O)[C@@]1(c2ccccc2)N(C(=O)c2ccccc2)[C@@]1(C)C(=O)c1ccccc1 | > 646 | 562 µM | – |

| SMILES | EC50 [µM] | IC50 | outcome |
| --- | --- | --- | --- |
| CCn1c(=O)c(N=O)c(N)n(CCCOC)c1=O | > 200 | > 200 µM | – |
| CCCCCCCCCCCCCCCCCC(=O)OC(COC(=O)COCCOCCOCCOCCOCCOC)COP(=O)([O-])OCC[N+](C)(C)C (stereo not drawn) | – | – | inactive |
| CCC(C)C(NC(=O)C(N)CCC(=O)O)C(=O)NC(CCCCN)C(=O)NCC(=O)NC(C(=O)NC(C(=O)NC(CC(=O)O)C(=O)NC(CC(C)C)C(=O)NCC(=O)NC(CCCCN)C(=O)O)C(C)O)C(C)O (stereo not drawn) (H-EIKGTTDLGK-OH; configuration not given here) | – | – | inactive |
| C=CCc1cc(OC)c(O)c(C(=O)/C=C/c2ccc(OC)c(OC)c2)c1 | > 14.8 | > 14.8 µM | – |
| CCOC(=O)P(=O)(O)c1ccc(N(C)Cc2ccccc2)cc1 | > 200 | > 200 µM | – |
| CCOC(=O)CCC(NC(=O)c1ccc(Nc2nc3cc(C(F)(F)F)ccc3nc2C(=O)OCC)cc1)C(=O)OCC (stereo not drawn) | > 191 | 4.57 µM | – |
| O=C(CCCN1CCc2[nH]c3ccccc3c2C1)c1ccc(F)cc1 | > 200 | 33.9 µM | – |
| Cc1ccccc1N1C(=O)C(=O)c2cccc(C)c21 | > 200 | 33.1 µM | – |
| CC(=O)OC1C=CC(SC23CC4CC(CC(C4)C2)C3)N(C(C)=O)C1SC12CC3CC(CC(C3)C1)C2 (stereo not drawn) | > 200 | > 200 µM | – |
| CCc1c(Cc2[nH]c(Cc3[nH]c(C=O)c(C)c3CC)c(CC)c2CC)[nH]c(C=O)c1C | > 200 | > 200 µM | – |
| CC(=O)NNC(=S)/N=C/C(C(=O)Nc1ccc(Cl)cc1)=C(\C)O | – | – | inactive |
| O=C(/C=C/c1c(O)ccc2ccccc12)c1ccccc1Cl | > 56.2 | 28.2 µM | – |
| CCCCCCCC(=O)[O-].CCCCCCCC(=O)[O-].N.N.N.N.[Co+3].[O-][Cl+3]([O-])([O-])[O-] | – | – | inactive |
| COc1cc2c(c3c1c(=O)c1ccccc1n3C)C=CC1(CCCCC1)O2 | > 200 | 7.76 µM | – |
| OC1c2ccccc2[C@@H]2[C@H]1[C@@H](c1ccccc1)C1(Cc3ccccc3C1O)[C@H]2c1ccccc1 (stereo partly drawn) | > 200 | 9.12 µM | – |
| CC(C(=O)O)c1ccc2oc(-c3ccc(Cl)cc3)nc2c1 (stereo not drawn) | > 200 | > 200 µM | – |
| CN1C=COC1N=C1CCCCC1 (stereo not drawn) | > 200 | > 200 µM | – |
| O=C(O)/C=N\Nc1nc2ccccc2[nH]1 | > 200 | > 200 µM | – |
| O=C(/C=C/c1ccco1)c1cccc(C(=O)/C=C/c2ccco2)n1 | > 200 | 9.55 µM | – |
| CCN(CC)CCCNc1nnc2c(=O)n(C)c(=O)n(C)c2n1 | > 200 | > 200 µM | – |
